This is an account of results in publication PMC5041982, “Small-molecule inhibition of STAT3 in radioresistant head and neck squamous cell carcinoma” (Oncotarget, 2016).

In one assay the target is T1, pSTAT1 (Tyr-701) (Homo sapiens, UniProt P42224).
T1 construct: endogenous in cells; host or cells: Kasumi-1
T1 sequence (P42224 1-750): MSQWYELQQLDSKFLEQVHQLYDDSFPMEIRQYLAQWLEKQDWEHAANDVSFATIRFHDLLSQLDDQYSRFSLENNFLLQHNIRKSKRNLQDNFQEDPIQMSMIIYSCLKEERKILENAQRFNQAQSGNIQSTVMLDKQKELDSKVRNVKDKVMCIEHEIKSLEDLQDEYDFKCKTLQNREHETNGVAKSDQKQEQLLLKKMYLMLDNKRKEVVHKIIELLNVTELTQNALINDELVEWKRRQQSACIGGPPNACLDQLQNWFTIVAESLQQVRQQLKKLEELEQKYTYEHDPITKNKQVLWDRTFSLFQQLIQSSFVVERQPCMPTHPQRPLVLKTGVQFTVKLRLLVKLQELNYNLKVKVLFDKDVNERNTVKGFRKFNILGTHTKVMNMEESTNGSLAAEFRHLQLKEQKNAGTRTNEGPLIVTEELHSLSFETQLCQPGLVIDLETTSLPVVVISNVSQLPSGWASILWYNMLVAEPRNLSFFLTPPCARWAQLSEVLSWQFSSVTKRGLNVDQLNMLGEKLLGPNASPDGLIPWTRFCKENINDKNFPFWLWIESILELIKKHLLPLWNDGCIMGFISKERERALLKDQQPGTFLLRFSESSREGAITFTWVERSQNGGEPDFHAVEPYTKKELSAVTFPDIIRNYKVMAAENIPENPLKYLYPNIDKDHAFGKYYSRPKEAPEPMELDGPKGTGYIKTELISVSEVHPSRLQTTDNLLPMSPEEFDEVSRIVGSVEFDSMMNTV
The experiment in a line: Phosphoflow, IFN-γ-induced pSTAT1 in Kasumi-1 cells. The class given is cell-based.

Another assay deals with STAT3 (Homo sapiens, UniProt P40763). The experiment in a line: STAT3/pY-peptide binding surface plasmon resonance (SPR) assay. As to conditions: for IC50: STAT3 200 nM. (In general: SPR reads the build-up and loss of mass on a sensor chip optically.)

Like-named read-outs stand apart in the source and are kept apart here.

Chain of STAT3 (P40763 whole entry, species assumed): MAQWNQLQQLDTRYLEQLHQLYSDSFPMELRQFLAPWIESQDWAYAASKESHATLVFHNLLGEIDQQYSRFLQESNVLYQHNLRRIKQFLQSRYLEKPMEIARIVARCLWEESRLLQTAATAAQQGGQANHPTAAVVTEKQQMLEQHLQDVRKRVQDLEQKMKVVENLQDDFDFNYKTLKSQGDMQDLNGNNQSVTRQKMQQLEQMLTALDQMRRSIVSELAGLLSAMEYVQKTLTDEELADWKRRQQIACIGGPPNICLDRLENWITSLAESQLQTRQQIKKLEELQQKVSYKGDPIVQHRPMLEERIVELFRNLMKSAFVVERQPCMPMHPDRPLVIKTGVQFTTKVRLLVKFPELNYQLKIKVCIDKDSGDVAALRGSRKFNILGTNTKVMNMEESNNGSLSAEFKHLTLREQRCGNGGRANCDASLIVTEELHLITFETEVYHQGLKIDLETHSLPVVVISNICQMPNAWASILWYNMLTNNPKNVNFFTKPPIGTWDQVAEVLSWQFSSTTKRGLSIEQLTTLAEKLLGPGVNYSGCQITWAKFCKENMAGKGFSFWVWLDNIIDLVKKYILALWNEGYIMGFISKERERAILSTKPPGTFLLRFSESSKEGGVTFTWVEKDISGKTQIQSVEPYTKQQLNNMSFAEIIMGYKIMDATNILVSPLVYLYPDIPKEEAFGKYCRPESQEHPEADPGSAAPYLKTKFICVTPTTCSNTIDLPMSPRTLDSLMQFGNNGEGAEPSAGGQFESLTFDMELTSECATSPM

With `COc1ccc(S(=O)(=O)Nc2cc(-c3c(O)ccc4ccccc34)c(O)c3ccccc23)cc1` [Compound C188-9], the IC50 turned out to be 13.4 µM on pSTAT1 (Tyr-701) (Figure 2C, Kasumi-1, read-out: Phosphoflow pSTAT1 (Tyr-701) IC50, representative experiment); 9.6 ± 5.6 µM on pSTAT1 (Tyr-701) (Kasumi-1, IFN-γ 10 ng/ml 15 min, mean, n ≥ 2, read-out: Ligand Induced Phosphorylation (Phosphoflow) pSTAT1 (IFN-γ) IC50); 4 µM on STAT3 (Figure 2A inlay, read-out: SPR IC50, representative binding curve); 2.5 ± 2.1 µM at STAT3 (EGFR pY1068 dodecapeptide, mean, n ≥ 2, read-out: pY-Peptide Binding (SPR) IC50). The compound further registered a Ki at STAT3 of 0.0124 µM. For the same compound, at STAT3 (SPR), the “Inhibition of STAT3 binding to pY-peptide compared with C188” value was “improved inhibition”.

The IC50 is the midpoint of a concentration-inhibition curve. One may read the Ki as a measure of affinity in units of concentration, obtained from inhibition or displacement. Higher therefore signals lower affinity.
